According to US4182707A, “Somatostatin analogues” (American Home Products Corporation, priority 1978, dated 1980):
Positions of bridges follow the written chain, without caps; N, C: chain ends. Non-standard residues stand in square brackets, D forms with d. Residues, ends and D or L forms follow the SMILES beside them.

Legend:
growth hormone = experiment: Arginine-stimulated growth hormone secretion in Nembutal-anesthetized rats; type: in vivo, Albino male rats; settings: 100 micrograms per kilogram subcutaneous; arginine into the heart 10 min later, blood 5 min after arginine; p<0.01; control 122±26 ng/ml
Description: The activity of the product of the preceding preparatory example, (des-Ala^1 -Gly^2, D-Lys^4, Trp^5, D-Trp^8)Somatostatin was determined by the following procedure:
Albino male rats were administered Nembutal intraperitoneally at a dose of 50 milligrams per kilogram. Fifteen minutes later a subcutaneous injection of the test compound or physiological saline was administered. Ten minutes later 0.5 millileters of arginine (300 milligrams per milliliter, pH 7.2) is injected into the heart. Five minutes after receipt of the arginine the rats are decapitated and blood is collected into trasylol-EDTA. […] Thus, (des-Ala^1 -Gly^2, D-Lys^4, Trp^5, D-Trp^8)Somatostatin, representative of the corresponding D-Arg^4,D-His^4, D-Orn^4, Phe^5, Tyr^5, Leu^5 and Met^5 analogues, their (Ala^1 -Gly^2)somatostatin analogues and the corresponding L-Trp^8 and D-Cys^14 analogues, is an effective agent for selectively reducing secretion of growth hormone at relatively high doses.

total acid output = experiment: Four hour pylorus ligated rat test (Shay et al.), anti-secretory activity; type: in vivo; settings: dosage between 0.25 and 2.0 mg/kg, p<0.05
From the text: Therefore, the product of Example 2 is also useful as an anti-secretory agent for the treatment of peptic ulcer disease.

Question: Which “growth hormone in blood” value (growth hormone) does the source give for `C[C@@H](O)[C@@H]1NC(=O)[C@H](Cc2ccccc2)NC(=O)[C@H]([C@@H](C)O)NC(=O)[C@H](CCCCN)NC(=O)[C@@H](Cc2c[nH]c3ccccc23)NC(=O)[C@H](Cc2ccccc2)NC(=O)[C@H](Cc2ccccc2)NC(=O)[C@H](Cc2c[nH]c3ccccc23)NC(=O)[C@@H](CCCCN)NC(=O)[C@@H](N)CSSC[C@@H](C(=O)O)NC(=O)[C@H](CO)NC1=O` [Example 2, L-cysteinyl-D-lysyl-L-tryptophyl-L-phenylalanyl-L-phenylalanyl-D-tryptophyl-L-lysyl-L-threonyl-L-phenylalanyl-L-threonyl-L-seryl-L-cysteine cyclic (1-12) disulfide] (H-C[dK]WFF[dW]KTFTSC-OH; disulfide 1-12) here?
Answer: The value was 24 ± 7 ng/mL.

Question: What about the “inhibition of total acid output” value (total acid output) of the same molecule?
Answer: The value was ~50%.
